Results taken from ChEMBL document CHEMBL2046376, “Synthesis and antimicrobial activity of amide derivatives of polyether antibiotic-salinomycin” (2012).
The source made the active and inactive calls.

Assays:
Assay type in all cases: functional
Staphylococcus aureus [1] = test: Antibacterial activity against Staphylococcus aureus ATCC 29213 assessed as zone of inhibition at 400 ug/disc after 18 hrs by disc diffusion method; conditions: ATCC 29213, 18 h, read-out: DIZ
[2] = test system: Staphylococcus epidermidis; test: Antibacterial activity against Staphylococcus epidermidis ATCC 12228 after 18 hrs by twofold serial agar dilution technique; conditions: ATCC 12228, 18 h
Pseudomonas aeruginosa [3] = test: Antibacterial activity against Pseudomonas aeruginosa ATCC 27853 after 18 hrs by twofold serial agar dilution technique
Staphylococcus aureus [4] = test: Antibacterial activity against hospital-acquired methicillin-sensitive Staphylococcus aureus 443/11 after 18 hrs by twofold serial agar dilution technique; conditions: 443/11, 18 h
Staphylococcus aureus [5] = test: Antibacterial activity against hospital-acquired methicillin-resistant Staphylococcus aureus 451/11 after 18 hrs by twofold serial agar dilution technique; conditions: 451/11, 18 h
[6] = test system: Staphylococcus epidermidis; test: Antibacterial activity against Staphylococcus epidermidis ATCC 12228 assessed as zone of inhibition at 400 ug/disc after 18 hrs by disc diffusion method; conditions: ATCC 12228, 18 h, read-out: DIZ
Staphylococcus aureus [7] = test: Antibacterial activity against hospital-acquired methicillin-sensitive Staphylococcus aureus 440/11 after 18 hrs by twofold serial agar dilution technique; conditions: 440/11, 18 h
Candida albicans [8] = test: Antifungal activity against Candida albicans ATCC 10231 after 24 hrs by twofold serial agar dilution technique
Staphylococcus aureus [9] = test: Antibacterial activity against Staphylococcus aureus ATCC 6538 assessed as zone of inhibition at 400 ug/disc after 18 hrs by disc diffusion method; conditions: ATCC 6538, 18 h, read-out: DIZ
Staphylococcus aureus [10] = test: Antibacterial activity against Staphylococcus aureus ATCC 25923 assessed as zone of inhibition at 400 ug/disc after 18 hrs by disc diffusion method; conditions: ATCC 25923, 18 h, read-out: DIZ
Staphylococcus aureus [11] = test: Antibacterial activity against hospital-acquired methicillin-resistant Staphylococcus aureus 399/10 after 18 hrs by twofold serial agar dilution technique; conditions: 399/10, 18 h
Staphylococcus aureus [12] = test: Antibacterial activity against Staphylococcus aureus ATCC 29213 after 18 hrs by twofold serial agar dilution technique; conditions: ATCC 29213, 18 h
Staphylococcus aureus [13] = test: Antibacterial activity against hospital-acquired methicillin-sensitive Staphylococcus aureus 441/11 after 18 hrs by twofold serial agar dilution technique; conditions: 441/11, 18 h
Staphylococcus aureus [14] = test: Antibacterial activity against hospital-acquired methicillin-resistant Staphylococcus aureus 400/10 after 18 hrs by twofold serial agar dilution technique; conditions: 400/10, 18 h
Staphylococcus aureus [15] = test: Antibacterial activity against hospital-acquired methicillin-resistant Staphylococcus aureus 394/10 after 18 hrs by twofold serial agar dilution technique; conditions: 394/10, 18 h
Staphylococcus aureus [16] = test: Antibacterial activity against hospital-acquired methicillin-resistant Staphylococcus aureus 393/10 after 18 hrs by twofold serial agar dilution technique; conditions: 393/10, 18 h
Proteus vulgaris = test: Antibacterial activity against Proteus vulgaris NCTC 4635 after 18 hrs by twofold serial agar dilution technique
Candida parapsilosis = test: Antifungal activity against Candida parapsilosis ATCC 22019 after 24 hrs by twofold serial agar dilution technique
Staphylococcus aureus [17] = test: Antibacterial activity against hospital-acquired methicillin-resistant Staphylococcus aureus 401/10 after 18 hrs by twofold serial agar dilution technique; conditions: 401/10, 18 h
Staphylococcus aureus [18] = test: Antibacterial activity against Staphylococcus aureus NCTC 4163 assessed as zone of inhibition at 400 ug/disc after 18 hrs by disc diffusion method; conditions: NCTC 4163, 18 h, read-out: DIZ
Staphylococcus aureus [19] = test: Antibacterial activity against Staphylococcus aureus ATCC 6538 after 18 hrs by twofold serial agar dilution technique; conditions: ATCC 6538, 18 h
Staphylococcus aureus [20] = test: Antibacterial activity against methicillin-resistant Staphylococcus aureus clinical isolate
Escherichia coli [21] = test: Antibacterial activity against Escherichia coli ATCC 10538 after 18 hrs by twofold serial agar dilution technique
Escherichia coli [22] = test: Antibacterial activity against Escherichia coli NCTC 8196 after 18 hrs by twofold serial agar dilution technique
Staphylococcus aureus [23] = test: Antibacterial activity against hospital-acquired methicillin-sensitive Staphylococcus aureus 446/11 after 18 hrs by twofold serial agar dilution technique; conditions: 446/11, 18 h
Escherichia coli [24] = test: Antibacterial activity against Escherichia coli ATCC 25922 after 18 hrs by twofold serial agar dilution technique
Pseudomonas aeruginosa [25] = test: Antibacterial activity against Pseudomonas aeruginosa NCTC 6749 after 18 hrs by twofold serial agar dilution technique
Staphylococcus aureus [26] = test: Antibacterial activity against hospital-acquired methicillin-sensitive Staphylococcus aureus 444/11 after 18 hrs by twofold serial agar dilution technique; conditions: 444/11, 18 h
[27] = test system: Staphylococcus epidermidis; test: Antibacterial activity against Staphylococcus epidermidis ATCC 35984 assessed as zone of inhibition at 400 ug/disc after 18 hrs by disc diffusion method; conditions: ATCC 35984, 18 h, read-out: DIZ
Staphylococcus aureus [28] = test: Antibacterial activity against hospital-acquired methicillin-resistant Staphylococcus aureus 482/11 after 18 hrs by twofold serial agar dilution technique; conditions: 482/11, 18 h
Staphylococcus aureus [29] = test: Antibacterial activity against hospital-acquired methicillin-resistant Staphylococcus aureus 452/11 after 18 hrs by twofold serial agar dilution technique; conditions: 452/11, 18 h
Candida albicans [30] = test: Antifungal activity against Candida albicans ATCC 90028 after 24 hrs by twofold serial agar dilution technique
Staphylococcus aureus [31] = test: Antibacterial activity against hospital-acquired methicillin-sensitive Staphylococcus aureus 442/11 after 18 hrs by twofold serial agar dilution technique; conditions: 442/11, 18 h
Staphylococcus aureus [32] = test: Antibacterial activity against Staphylococcus aureus NCTC 4163 after 18 hrs by twofold serial agar dilution technique; conditions: NCTC 4163, 18 h
Staphylococcus aureus [33] = test: Antibacterial activity against hospital-acquired methicillin-resistant Staphylococcus aureus 450/11 after 18 hrs by twofold serial agar dilution technique; conditions: 450/11, 18 h
Staphylococcus aureus [34] = test: Antibacterial activity against hospital-acquired methicillin-sensitive Staphylococcus aureus 449/11 after 18 hrs by twofold serial agar dilution technique; conditions: 449/11, 18 h
[35] = test system: Staphylococcus epidermidis; test: Antibacterial activity against Staphylococcus epidermidis ATCC 35984 after 18 hrs by twofold serial agar dilution technique; conditions: ATCC 35984, 18 h
Staphylococcus aureus [36] = test: Antibacterial activity against hospital-acquired methicillin-sensitive Staphylococcus aureus 447/11 after 18 hrs by twofold serial agar dilution technique; conditions: 447/11, 18 h
Staphylococcus aureus [37] = test: Antibacterial activity against hospital-acquired methicillin-sensitive Staphylococcus aureus 448/11 after 18 hrs by twofold serial agar dilution technique; conditions: 448/11, 18 h
Staphylococcus aureus [38] = test: Antibacterial activity against hospital-acquired methicillin-sensitive Staphylococcus aureus 445/11 after 18 hrs by twofold serial agar dilution technique; conditions: 445/11, 18 h
Staphylococcus aureus [39] = test: Antibacterial activity against hospital-acquired methicillin-resistant Staphylococcus aureus 481/11 after 18 hrs by twofold serial agar dilution technique; conditions: 481/11, 18 h
Pseudomonas aeruginosa [40] = test: Antibacterial activity against Pseudomonas aeruginosa ATCC 15442 after 18 hrs by twofold serial agar dilution technique
[41] = test system: Bordetella bronchiseptica; test: Antibacterial activity against Bordetella bronchiseptica ATCC 4617 after 18 hrs by twofold serial agar dilution technique
Staphylococcus aureus [42] = test: Antibacterial activity against Staphylococcus aureus ATCC 25923 after 18 hrs by twofold serial agar dilution technique; conditions: ATCC 25923, 18 h

CC[C@@H](C(=O)[C@@H](C)[C@@H](O)[C@H](C)[C@@H]1O[C@@H]([C@@H](CC)C(=O)O)CC[C@@H]1C)[C@H]1O[C@]2(C=C[C@@H](O)[C@]3(CC[C@@](C)([C@H]4CC[C@](O)(CC)[C@H](C)O4)O3)O2)[C@H](C)C[C@@H]1C [SALINOMYCIN]
33 mm: zone of inhibition at 400 µg/disc (Staphylococcus aureus [18])
inactive: Activity (Pseudomonas aeruginosa [3]) | Activity (Candida albicans [8]) | Activity (Proteus vulgaris) | Activity (Candida parapsilosis) | Activity (Escherichia coli [21]) | Activity (Escherichia coli [22]) | Activity (Escherichia coli [24]) | Activity (Pseudomonas aeruginosa [25]) | Activity (Candida albicans [30]) | Activity (Pseudomonas aeruginosa [40]) | Activity [41]
29 mm: zone of inhibition at 400 µg/disc (Staphylococcus aureus [1])
1 µg/mL: MIC (Staphylococcus aureus [7]) | MIC (Staphylococcus aureus [11]) | MIC (Staphylococcus aureus [14]) | MIC (Staphylococcus aureus [17]) | MIC (Staphylococcus aureus [20]) | MIC (Staphylococcus aureus [23]) | MIC (Staphylococcus aureus [29]) | MIC (Staphylococcus aureus [34]) | MIC (Staphylococcus aureus [38]) | MIC (Staphylococcus aureus [39])
2 µg/mL: MIC [2] | MIC (Staphylococcus aureus [4]) | MIC (Staphylococcus aureus [5]) | MIC (Staphylococcus aureus [12]) | MIC (Staphylococcus aureus [13]) | MIC (Staphylococcus aureus [15]) | MIC (Staphylococcus aureus [16]) | MIC (Staphylococcus aureus [19]) | MIC (Staphylococcus aureus [26]) | MIC (Staphylococcus aureus [28]) | MIC (Staphylococcus aureus [31]) | MIC (Staphylococcus aureus [32]) | MIC (Staphylococcus aureus [33]) | MIC [35] | MIC (Staphylococcus aureus [36]) | MIC (Staphylococcus aureus [37]) | MIC (Staphylococcus aureus [42])
28 mm: zone of inhibition at 400 µg/disc [6]
30 mm: zone of inhibition at 400 µg/disc (Staphylococcus aureus [9]) | zone of inhibition at 400 µg/disc [27]
31 mm: zone of inhibition at 400 µg/disc (Staphylococcus aureus [10])

CC[C@@H](C(=O)[C@@H](C)[C@@H](O)[C@H](C)[C@@H]1O[C@@H]([C@@H](CC)C(=O)NCCCN2CCCCC2)CC[C@@H]1C)[C@H]1O[C@]2(C=C[C@@H](O)[C@]3(CC[C@@](C)([C@H]4CC[C@](O)(CC)[C@H](C)O4)O3)O2)[C@H](C)C[C@@H]1C
13 mm: zone of inhibition at 400 µg/disc (Staphylococcus aureus [9])
256 µg/mL: MIC [35]
inactive: Activity (Pseudomonas aeruginosa [3]) | Activity (Candida albicans [8]) | Activity (Proteus vulgaris) | Activity (Candida parapsilosis) | Activity (Escherichia coli [21]) | Activity (Escherichia coli [22]) | Activity (Escherichia coli [24]) | Activity (Pseudomonas aeruginosa [25]) | Activity (Candida albicans [30]) | Activity (Pseudomonas aeruginosa [40]) | Activity [41]
32 µg/mL: MIC (Staphylococcus aureus [4]) | MIC (Staphylococcus aureus [5]) | MIC (Staphylococcus aureus [7]) | MIC (Staphylococcus aureus [26]) | MIC (Staphylococcus aureus [29]) | MIC (Staphylococcus aureus [31]) | MIC (Staphylococcus aureus [34]) | MIC (Staphylococcus aureus [36]) | MIC (Staphylococcus aureus [37]) | MIC (Staphylococcus aureus [38])
12 mm: zone of inhibition at 400 µg/disc (Staphylococcus aureus [18])
64 µg/mL: MIC (Staphylococcus aureus [11]) | MIC (Staphylococcus aureus [13]) | MIC (Staphylococcus aureus [14]) | MIC (Staphylococcus aureus [15]) | MIC (Staphylococcus aureus [16]) | MIC (Staphylococcus aureus [17]) | MIC (Staphylococcus aureus [23]) | MIC (Staphylococcus aureus [28]) | MIC (Staphylococcus aureus [33]) | MIC (Staphylococcus aureus [39])
11 mm: zone of inhibition at 400 µg/disc (Staphylococcus aureus [1]) | zone of inhibition at 400 µg/disc [6] | zone of inhibition at 400 µg/disc (Staphylococcus aureus [10]) | zone of inhibition at 400 µg/disc [27]
128 µg/mL: MIC [2] | MIC (Staphylococcus aureus [12]) | MIC (Staphylococcus aureus [19]) | MIC (Staphylococcus aureus [32]) | MIC (Staphylococcus aureus [42])
